The values that follow come from patent US10813891B2, “Method of inhibiting chronification of pain” (priority 2011, dated 2020).

Entries after “also recorded” stand apart in the source; their conditions may differ. Where two headings read alike, the source gives them in different places.

For experiment [1], the system named is CCI-ION rats. To be noted: cited from earlier work.
Experiment [2] has as its system CCI-SN rats. The format is in vivo, rat. The conditions noted are these: rat, in vivo. As to the method:
(§1) Male Sprague-Dawley rats (Charles River Laboratories, L'Arbresle, France), weighing 150-200 g on arrival, were used. Animals were maintained under controlled environmental conditions (22±1° C., 60% relative humidity, 12 h/12 h light/dark cycle, food and water ad libitum) starting from reception in the laboratory, for at least 1 week before any intervention or treatment and thereafter, until euthanasia.
Rats were anaesthetized as above and the common sciatic nerve was exposed. Using a dissection microscope (2× magnification), four chromic catgut (5-0) ligations were tied loosely with about 1 mm spacing, proximally to the sciatic trifurcation (Bennett and Xie, 1988). Finally, the skin and muscle were sewed using silk sutures (4-0). In sham-operated animals, the same surgery was performed, but the nerve was not ligated.
(§2) Tapentadol (1, 3 and 10 mg/kg i.p.), reboxetine (10 mg/kg i.p.), morphine (1 and 3 mg/kg s.c.) or their vehicle (0.9% NaCl) were injected acutely 14 days after surgery, when allodynia/hyperalgesia reached a plateau in both CCI-SN and CCI-ION rats. Behavioral tests were performed at various times for up to 4 h after injection. In drug association procedure, reboxetine or saline was administered 15 min before morphine or saline.
(§3) Subchronic treatment consisted of twice daily injections of tapentadol (10 mg/kg, i.p. at 10:00 am and 6:00 pm) or saline for 4 days starting on the 15th day after nerve ligation in both CCI-ION and CCI-SN rats. Animals were further injected with tapentadol (10 mg/kg i.p.) or saline at 10:00 am the following day (19th day post-surgery), and assessment of allodynia with von Frey filament tests (see below) was made at various times up to 4 hours after this injection. All rats were killed by decapitation 4 hours after the last injection for real-time qRT-PCR determinations of specific mRNAs in ganglia and central tissues (see below).
Before testing, each rat was habituated for 2 h as above, and mechanical sensitivity was then determined with a graded series of […] von Frey filaments, that produced a bending force of 6, 8, 10, 12, 15, 26, and 60 g, respectively. The stimuli were applied within the SN territory (lateral part of the hind paw sole). Each filament was tested three times on the nerve-injured side in increasing order starting with the filament producing the lowest force. As for the CCI-ION rats, the von Frey filaments were applied at least 3 seconds after the rat had returned to its initial resting state. The minimal force filament for which animals presented either a brisk paw withdrawal and/or an escape attempt in response to at least 2 out of the 3 stimulations allowed determination of the mechanical response threshold. The 60.00 g filament was chosen as the cutoff threshold to inhibit any tissue injury.
A—Two weeks after unilateral chronic constriction injury to the sciatic nerve, pressure threshold values (as g) to trigger nocifensive responses to von Frey filaments application onto the plantar surface of ipsilateral hindpaw were determined at various times after acute injection of tapentadol (1, 3 or 10 mg/kg, i.p.) or saline. B—On day 15 (D on abscissa) after nerve ligation, rats were treated subchronically with tapentadol (10 mg/kg, i.p., twice daily, at 10:00 AM and 6:00 PM) or saline for four days. On the following day (day 19 after surgery), both tapentadol- and saline-pretreated CCI-SN rats were injected with tapentadol (10 mg/kg, i.p.; 0 on abscissa) and then subjected to von Frey filaments' test applied to ipsilateral hindpaw for determination of pressure threshold values (as g) at various times thereafter.

Experiment [3] deals with CCI-SN rats. To be noted: rat, in vivo; cited from earlier work.
In experiment [4] the test system is CCI-ION rats. The format is in vivo, rat. To be noted: rat, in vivo. The procedure:
as §1
Rats were anaesthetized with sodium pentobarbital (50 mg/kg i.p.). Unilateral CCI-ION was performed under direct visual control using a Zeiss microscope (10-25×). Briefly, the head was fixed in a Horsley-Clarke stereotaxic frame and a midline scalp incision was made, exposing skull and nasal bone. The edge of the orbit, formed by the maxillary, frontal, lacrimal, and zygomatic bones, was dissected free. The orbital contents were then gently deflected to give access to the infraorbital nerve which was dissected free at its most rostral extent in the orbital cavity, just caudal to the infraorbital foramen. Only 5 mm of the nerve could be freed, providing the space for placement of two chromic catgut (5-0) ligations tied loosely (with about 2 mm spacing) around it. […] Finally, scalp incision was closed using silk sutures (4-0). In sham-operated rats, the ION was exposed using the same procedure, but was not ligated.
as §2, §3
Rats were placed individually in small (35×20×15 cm) plastic cages for a 2 h habituation period. Before any stimulation session, rats freely explored the observation cage and the testing environments for 2 h. Then mechanical sensitivity was determined with a graded series of […] von Frey filaments (Bioseb, Bordeaux, France). The filaments produced a bending force of 0.40, 0.60, 1.00, 2.00, 4.00, 6.00, 8.00, 10.00 and 12.00 g, respectively. The stimuli were applied within the ION territory (vibrissae pad) three times on the nerve-injured side and then on the contralateral side for a total of 6 applications of each filament per rat, always beginning with the filament producing the lowest force. The von Frey filaments were applied at least 3 seconds after the rat had returned to its initial resting state. For each session, the complete series of von Frey filaments was tested in increasing force order. […] The latter responses represented the highest scores in the rank-ordered response scoring system initially described by Vos et al. (1994). Under our own conditions, the mechanical response threshold was determined as the minimal force filament causing at least one among these responses to at least 2 out of the 3 applications in vibrissae territory. […] To avoid nonspecific responses, only these rats were included in the study.

The test system of experiment [5] is mice hindpaw after incision. The conditions noted are these: mouse, in vivo; cited from earlier work.

On to `NC1CCN(O)C1=O` (single isomer, unassigned; (+)) [(+)-HA966], for which the “cephalic neuropathic pain, each drug alone” value in the experiment on CCI-ION rats [1] (each drug alone) was “inactive”.

With `CN1CC[C@]23c4c5ccc(O)c4O[C@H]2[C@@H](O)C=C[C@H]3[C@H]1C5` [morphine], in the experiment on CCI-SN rats [2], the “effect on CCI-SN-induced mechanical allodynia” value is “fully reversed CCI-SN-induced mechanical allodynia; also recorded: allodynia was not completely reversed”; the “persistence of reversal of allodynia” value is “at least one hour”; the “pressure threshold values, either drug alone” value is reported as “only discrete increases in pressure threshold values”. In the experiment on CCI-ION rats [1] (rat, in vivo), the “allodynia in the vibrissae territory” value is “inactive against allodynia in the vibrissae territory” and the “cephalic neuropathic pain, each drug alone” value was “inactive”. Besides, the “allodynia/hyperalgesia in the hindpaw” value in the experiment on CCI-SN rats [3] is given as “reversed allodynia/hyperalgesia in the hindpaw”. The “maximum increase in pressure threshold value, as % of that in healthy intact rats” value in the experiment with CCI-ION rats [4] is given as 20%. In addition, in experiment [5], the incision-induced hyperalgesia result is “does not inhibit incision-induced hyperalgesia; also recorded: hyperalgesia is even maintained”.

Regarding `CCOc1ccccc1OC(c1ccccc1)C1CNCCO1` (stereo not shown) [reboxetine], in the experiment with CCI-SN rats [2], the “pressure threshold values, either drug alone” value is “only discrete increases in pressure threshold values”. In addition, in the experiment on CCI-ION rats [4], the anti-allodynic effect alone entry was “completely inactive on its own”.

For `NC1=N[C@H](O)[C@H]2[C@H]3O[C@]4(O)O[C@@H]([C@@H](O)[C@@]2(N1)[C@@H]4O)[C@]3(O)CO` [tetrodotoxin], in the experiment on CCI-ION rats [1] (rat, in vivo), the “allodynia in the vibrissae territory” value was “inactive against allodynia in the vibrissae territory”. Besides, the “allodynia/hyperalgesia in the hindpaw” value with CCI-SN rats [3] is reported as “reversed allodynia/hyperalgesia in the hindpaw”.
